Converted amounts (≈) assume the structure as drawn. Structures can show the parent of a compound that is named as a salt. Where two headings read alike, the source gives them in different places. Some results are limits rather than exact numbers.

The source of these data is article PMC6414029, “Utilisation of the Prestwick Chemical Library to identify drugs that inhibit the growth of mycobacteria” (PLoS ONE, 2019).

Test [1] has as its system M. smegmatis. Description: microbe, parasite or virus in culture. The class given is cell-based, Mycobacterium smegmatis. The settings on record: liquid medium.
Test [2] deals with BCG. Description: microbe, parasite or virus in culture. The class given is cell-based, Mycobacterium bovis BCG. The conditions noted are these: for MIC: Mycobacterium tuberculosis variant bovis BCG.
For test [3], the system named is BCG. Description: microbe, parasite or virus in culture. The class given is cell-based, Mycobacterium bovis BCG. The conditions noted are these: for MIC: Mycobacterium tuberculosis variant bovis BCG, BCG, read-out: Liquid MIC.
Test [4] relates to M. smegmatis. Description: MIC determination on solid agar. The class given is cell-based, Mycobacterium smegmatis. The settings on record: M. smegmatis; for MIC: 7H10 solid agar, absence of colonies, read-out: Solid MIC. On the procedure:
Drugs were diluted from a 10mM stock, mixed individually in 2 mLs of molten 7H10 agar and dispensed in square partitioned petri plates. Plates were incubated at 37°C and solid MIC was determined based on absence of colonies.

Test [5] relates to BCG. The class given is cell-based, Mycobacterium bovis BCG.
In test [6] the test system is M. smegmatis. The class given is cell-based, Mycobacterium smegmatis. The conditions noted are these: 20 μM compound, 48 hr read, GFP fluorescence.
A further test concerns M. tuberculosis H37Rv. Description: Alamar Blue (resazurin) MIC assay. The class given is cell-based, Mycobacterium tuberculosis. The conditions noted are these: liquid growth media. On the procedure:
To investigate the effects of repurposed compounds on growth of M. tuberculosis H37Rv using an Alamar Blue based MIC assay using the resazurin reagent. This assay was performed in 7H9 medium containing Middlebrook broth and 0.5% glycerol and supplemented with oleic acid, albumin, dextrose, and catalase. Clear- 96-well plates were inoculated with 100 μL of drug diluted with 90 μl of 7H9 medium and 10 μL DMSO. Serial 3-fold dilutions of each drug in 100 μL of 7H9 medium were prepared at various ranges. Growth controls containing no antibiotic and sterility controls without inoculation were also included. 200 μL of sterile deionized water was added to the outer perimeter wells to prevent evaporation during plate incubation. Plates were incubated plate at 37°C for 3–4 days. After incubation, the plates were removed and 10 μL of resazurin (0.02% w/v) was added to each well that contained bacteria. Assay plates were reincubated at 37°C for 24–48 hours and visually assessed for colour development. OD 570 nm readings were taken to provide further quantitation provide an interpretation of the dose response of the bacterium to repurposed compounds.
In general terms: Resazurin is reduced to fluorescent resorufin, in cell work by metabolically active cells.

For another test, the system named is HepG2 cells. Description: HepG2 cytotoxicity assay (CellTitre-Glo). The class given is cell-based. On the procedure: Actively growing HepG2 cells were removed from a T-175 tissue culture flask with 5 mL of Eagle’s MEM containing 10% FBS/1%NEAA/1% Penicillin and Streptomycin) and mixed with gentle pipetting. […] The cell suspension was added to 250 mL of the same medium at a final density of […]. […] Plates were allowed to incubate at 37°C at a relative humidity of 80% and 5% CO2 for 48 hours. After incubation, the plates were allowed to equilibrate at room temperature for 30 mins before 25 μL of CellTitre-Glo (Promega) reagent was added to each well using a multichannel pipette. Plates were left at room temperature for 30 mins before relative luminescence was read using a BMG Labtech POLARstar Omega plate reader.

In test [7] the test system is BCG over-expressing EchA12. Description: microbe, parasite or virus in culture. The class given is cell-based, Mycobacterium bovis BCG.
Where [8] appears, read: read-out: Solid MIC, BCG, 7H10 solid agar, absence of colonies.
The mark [9] stands for this setting: read-out: Solid MIC, BCG, solid agar, values given in mM.

In the case of `O=C1NCN(c2ccccc2)C12CCN(CCCC(c1ccc(F)cc1)c1ccc(F)cc1)CC2` [Fluspirilene], in the test on M. smegmatis [1], the MIC is reported as 827.5 µM (≈ 394 µg/mL).
Regarding `CO[C@@H]1[C@@H](O[C@@H]2O[C@H](C)[C@@H](O[C@H]3C[C@@](C)(O)[C@@H](OC(=O)CC(C)C)[C@H](C)O3)[C@H](N(C)C)[C@H]2O)[C@@H](CC=O)C[C@@H](C)[C@@H](O)/C=C/C=C/C[C@@H](C)OC(=O)C[C@H]1OC(C)=O` [Josamycin], the MIC in the test on BCG [2] (setting [8]) is more than 0.1 mM. Besides, in the test on BCG [3], the “Liquid MIC” value came out at 0.10 µM and the MIC came to 0.1 µM (≈ 0.0828 µg/mL).
With `COc1ccc(CCN2CCC(Nc3nc4ccccc4n3Cc3ccc(F)cc3)CC2)cc1` [Astemizole], the results for the MIC in the test with BCG [2] (setting [8]), in the test with BCG [2] (setting [9]) and in the test on BCG [3] were 0.05 mM (≈ 22.9 µg/mL), approximately 0.05 mM (≈ 22.9 µg/mL) and 17.8 µM (≈ 8.16 µg/mL), respectively. The “Liquid MIC” value with BCG [3] was found to be 17.78 µM.
`CN(C)CCOc1ccc(/C(=C(/CCCl)c2ccccc2)c2ccccc2)cc1` [Toremifene]: the MIC in the test on M. smegmatis [4] (Mycolicibacterium smegmatis) came to 62.5 µM (≈ 25.4 µg/mL); with M. smegmatis [1], 23.76 µM (≈ 9.65 µg/mL).
`[H]/N=C(/N)N[C@H]1[C@H](O)[C@@H](O)[C@H](O[C@@H]2O[C@@H](C)[C@](O)(C=O)[C@H]2O[C@@H]2O[C@@H](CO)[C@H](O)[C@@H](O)[C@@H]2NC)[C@@H](N/C(N)=N\[H])[C@@H]1O` [streptomycin]: the “% survival” value in the test on BCG [5] and in the test on M. smegmatis [6] was less than 25% each time.
A word on the IC50: it is the midpoint of a concentration-inhibition curve. A higher IC50 goes with a need for much substance. Turning to `CC(=O)OC[C@H]1O[C@@H]([S-])[C@H](OC(C)=O)[C@@H](OC(C)=O)[C@@H]1OC(C)=O.CCP(CC)CC.[Au+]` [Auranofin], the “Solid MIC relative to liquid MIC” value in the test with M. smegmatis [4] was found to be 12 fold. Besides, the MIC in the test with M. smegmatis [4] is 6.0 µM; with M. tuberculosis H37Rv, 0.27 µM; against M. smegmatis [1] it was 0.51 µM. In the test with HepG2 cells (48 hours), this compound returned a half-maximal inhibitory concentration (IC50) of 3 µM.
`CS(=O)(=O)c1ccc([C@@H](O)[C@@H](CF)NC(=O)C(Cl)Cl)cc1` [Florfenicol]: the “MIC in the absence of EchA12 over-expression, compared with wild-type BCG” value in test [7] is on record as “unchanged”. Besides, the MIC in [7] (Mycobacterium tuberculosis variant bovis BCG, BCG, read-out: MIC upon over-expression of EchA12) was more than 12 µM; with BCG [2] (setting [8]) it was approximately 0.005 mM (≈ 1.79 µg/mL); with M. tuberculosis H37Rv (Mycobacterium tuberculosis) it was 25.4 µM (≈ 9.1 µg/mL); in the test with BCG [3], 0.7 µM (≈ 0.251 µg/mL). For the same compound, the “Solid MIC relative to liquid MIC” value in the test on BCG [2] worked out at 5 fold. In addition, the “Solid MIC” value in the test with BCG [2] (7H10 solid agar, absence of colonies, listed as Florfenciol) turned out to be 6 µM. This compound returned an IC50 in the test on HepG2 cells (Homo sapiens, HepG2, 48 hours) of more than 250 µM. Besides, the “Liquid MIC” value in the test with BCG [3] was 0.67 µM.
Turning to `CN(C)CCN(Cc1ccccc1)c1ccccn1` [Tripelennamine], the “Solid MIC relative to liquid MIC” value in the test on BCG [2] was determined as 2 fold. The MIC in the test on BCG [2] (setting [8]) amounted to 0.1 mM (≈ 25.5 µg/mL); with BCG [2] (setting [9]), 0.1 mM (≈ 25.5 µg/mL); with M. tuberculosis H37Rv (Mycobacterium tuberculosis), 49.3 µM (≈ 12.6 µg/mL); with BCG [3], 41.9 µM (≈ 10.7 µg/mL). The same compound had an IC50 in the test with HepG2 cells (Homo sapiens, HepG2, 48 hours) of more than 250 µM.
For `NC(=O)c1cnccn1` [pyrazinamide], in the test with BCG [5], the “% survival” value is on record as less than 25%.
With `CO[C@H]1/C=C/O[C@@]2(C)Oc3c(C)c(O)c4c(O)c(c(/C=N/N5CCN(C)CC5)c(O)c4c3C2=O)NC(=O)/C(C)=C\C=C\[C@H](C)[C@H](O)[C@@H](C)[C@@H](O)[C@@H](C)[C@H](OC(C)=O)[C@@H]1C` [rifampicin], the “% survival” value in the test on BCG [5] and in the test with M. smegmatis [6] was less than 25% throughout.
`COC(=O)C1=C(C)NC(C)=C(C(=O)OCC(C)C)C1c1ccccc1[N+](=O)[O-]` (stereo not drawn) [Nisoldipine]: the MIC is 100 µM (≈ 38.8 µg/mL) in the test on M. smegmatis [4] (Mycolicibacterium smegmatis) and 396.2 µM (≈ 154 µg/mL) in the test with M. smegmatis [1].
In the same order, the values of `CN[C@H]1CC[C@@H](c2ccc(Cl)c(Cl)c2)c2ccccc21` [Sertraline] are 90 µM (≈ 27.6 µg/mL) and 526.7 µM (≈ 161 µg/mL).
On to `CN(CCOc1ccc(CC2SC(=O)NC2=O)cc1)c1ccccn1` (stereo not drawn) [Rosiglitazone], for which the MIC in the test on BCG [2] (setting [8]) was not below 1.5 mM; in the test on BCG [2] (setting [9]), approximately 1.5 mM (≈ 536 µg/mL); in the test on BCG [3], 43.1 µM (≈ 15.4 µg/mL).
Regarding `CC/C(=C(\c1ccccc1)c1ccc(OCCN(C)C)cc1)c1ccccc1` [Tamoxifen citrate], the MIC against M. tuberculosis H37Rv (Mycobacterium tuberculosis) was not below 100 µM; against M. smegmatis [1] it was 26.48 µM.
`[H]/N=C(\N/C(=N/[H])NCCCCCCNC(=N)NC(=N)Nc1ccc(Cl)cc1)Nc1ccc(Cl)cc1` [Chlorhexidine]: the MIC in the test on M. smegmatis [4] (Mycolicibacterium smegmatis) was 16 µM (≈ 8.09 µg/mL); in the test on M. smegmatis [1] (Mycolicibacterium smegmatis), 1.98 µM (≈ 1 µg/mL); with M. smegmatis [1] it was 1.95 µM (≈ 0.986 µg/mL).
Regarding `O=C(c1ccc(OCCN2CCCCC2)cc1)c1c(-c2ccc(O)cc2)sc2cc(O)ccc12` [Raloxifene], the MIC in the test with M. smegmatis [4] is reported as 312.5 µM (≈ 148 µg/mL); against M. tuberculosis H37Rv, 22.10 µM (≈ 10.5 µg/mL); in the test on M. smegmatis [1], 25.7 µM (≈ 12.2 µg/mL). The compound further yielded an IC50 in the test with HepG2 cells (48 hours) of 20 µM.
